In patent publication US20120291148A1, “TRANSGENIC PLANTS WITH ENHANCED CHARACTERISTICS” (Miami University, priority 2007, published 2012):
Read-outs that look alike come from different tables or passages of the source.

Assays:
AtETHE1 [1] = molecular target: T1, AtETHE1 (Arabidopsis thaliana, UniProt Q9C8L4, S50M); assay: Inhibition of AtETHE1 p-nitrophenyl acetate hydrolysis by metal chelator; format: biochemical; details: presence of metal chelator
T1 construct: made in house
Procedure: (§1) Enzymatic assays were conducted at 25° C. in 10 mM MOPS, pH 7.2, on a Cary IE UV-Vis spectrophotometer. A series of thioesters of glutathione were synthesized as previously described (L. Uotila, Meth. Enzymol. 77 (1981) 424-430), and all other substrates were purchased commercially. The hydrolysis of S-D-lactoylglutathione (Sigma), S-D-acetylglutathione, S-D-acetoacetylglutathione, S-D-formylglutathione, S-D-glyocosylgutathione or S-D-pyruvylglutathione was monitored at 240 nm. S-D-mandeloylglutathione hydrolysis was monitored at 263 nm (L. Uotila, Meth. Enzymol. 77 (1981) 424-430). Hydrolysis of p-nitrophenyl phosphate (Sigma), p-nitrophenyl sulfate (Sigma), and p-nitrophenyl acetate (Sigma) was monitored at 400 nm (see R. A. Anderson, et al., Proc. Natl. Acad. Sci. 72 (1975) 2989-2993; J. J. Brandt, et al., Anal. Biochem. 272 (1999) 94-99; J. M. Armstrong, et al., J. Biol. Chem. 241 (1966) 5137-5149). The hydrolysis of L-alanine-p-nitroanilide (Sigma) was measured at 404 nm (J. J. Brandt, et al., Anal. Biochem. 272 (1999) 94-99). Ala-ala-ala-p-nitroanilide (Sigma) and y-L-Glu-p-nitroanalide (Sigma) hydrolysis was monitored at 410 nm. Hydrolysis of benzoylglycyl-L-phenylalanine was monitored at 254 nm (J. F. Sabastian, et al., Can. J. Biochem. 56 (1978) 329-333). […]

AtETHE1 expression = assay: RT-PCR of AtETHE1 mRNA in hydroponic plants under abiotic stress (Example 4); format: in vivo, Arabidopsis Columbia; details: 10 uM ABA 3 hours; 150 mM NaCl 12 hours (roots); 300 mM Mannitol 24 hours
Procedure: Stress studies were performed on Wild-type Arabidopsis Columbia grown hydroponically. Seeds were germinated on Rockwool (GrodanHP, Agro Dynamics Inc., East Brunswick, N.J., USA) suspended above Hoagland's solution and grown in a growth chamber maintained at 23° C. and 16 hour light, 8 hour dark cycles. For the plants stressed with abscisic acid (ABA), seedlings were grown hydroponically for 7 days and then stressed for 3 hours with 10 uM ABA. Plants were grown hydroponically for 18 days for stresses with NaCl and Mannitol. Plants were either stressed with 150 mM NaCl for 12 hours or stressed for 24 hours with 300 mM Mannitol. Plant material, roots only for NaCl stress, was immediately ground in liquid N2 and stored in the −80° C. until needed for RNA isolation.
AtETHE1 RNA levels were determined using RT-PCR on total RNA isolated from either whole plants (ABA, Mannitol treated) or from the roots (NaCl treated). […] ACT8 was used as a control.

[2] = test system: AtETHE1 transcript levels; assay: RT-PCR of AtETHE1 transcript levels under abiotic stress (Example 5); format: in vivo, Arabidopsis Columbia; details: 10 μM ABA 3 hours; 150 mM NaCl or 300 mM Mannitol 24 hours
Procedure: Stress studies were performed on wild-type Arabidopsis Columbia plants grown hydroponically. Seeds were germinated on Rockwool (GrodanHP, Agro Dynamics Inc., East Brunswick, N.J., USA) suspended above Hoagland's solution (Cowgilland & Milazzo, (1989) The Culturing and Testing of Two Species of Duckweed. In W J Adams, G A Chapman, eds, Aquatic Toxicology and Hazard Assessment Vol 12. American Society for Testing and Materials, Philadelphia, Pa., pp 379-391) and grown in a growth chamber maintained at 23° C. with 16 hour light, 8 hour dark cycles. Plants stressed with abscisic acid (ABA), were grown hydroponically for 7 days and then stressed for 3 hours with 10 μM ABA. Plants were grown hydroponically for 18 days prior to treatment with either 150 mM NaCl or 300 mM Mannitol for 24 hours.
AtETHE1 RNA levels were determined by RT-PCR on total RNA (1 μg) isolated from cotyledon, root, stem, leaf, silique, and bud, and seedlings subjected to abiotic stresses. AtETHE1 cDNA was synthesized using a Thermoscript RT-PCR kit, followed by 25 cycles of PCR using the primer pair 2-3-5′ and 2-3-2. ACT8 was used as a control (An, et al., (1996) Plant J 10: 107-121).

AtETHE1 [3] = molecular target: T1, AtETHE1; assay: Steady-state kinetic test of candidate substrates with AtETHE1; format: biochemical; details: steady-state kinetic studies after screening hit
Procedure: as §1

[4] = test system: Arabidopsis seedlings (root growth); assay: Seedling growth on MS plates with exogenous metabolites; format: in vivo, Arabidopsis thaliana; details: for sensitivity of AtETHE256-OE plants compared with wild-type plants: 0 mM to 2 mM metabolite on MS plates; for inhibition at 1500 µM: Arabidopsis thaliana, 168 h, 1.5 mM valine, 7 days of growth
Procedure: Studies in Arabidopsis thaliana Heyhn were performed on the Wassilewskija (WS) ecotype. Seeds were vernalized at 4° C. for 48 hours prior to being placed in a growth chamber. For measurement of toxicity and germination rates, seeds were surfaced sterilized with 70% ethanol for 30 seconds followed by 10% bleach for 30 minutes, rinsed three times with sterile deionized water and plated on half strength Murashige and Skoog (MS) plates solidified with 0.6% Gelrite and supplemented with 1.5% sucrose, pH 6.0. Plates were vernalized for four days at 4° C. and then placed in a controlled growth chamber at 23° C. on a 16:8 light/dark cycle.
Wild-type Arabidopsis (Ws), AtETHE1256-OE, and AtETHE1294-OE seeds were sown onto half-strength MS plates with 0 mM to 2 mM valine, propionate, ethylmalonic acid, butyric acid, or crotonic acid (all purchased from Sigma). Neutralized, filter-sterilized metabolites were added after the medium was autoclaved. Once toxicity levels for wild-type seeds were obtained, wild-type, AtETHE1256-OE, and AtETHE1294-OE seeds were plated together on the same plates. Root lengths and cotyledon growth from 100 plants per stress were measured and compared after 7 days of growth.

plants = assay: Preliminary studies of methylmalonate toxicity in plants; format: in vivo
[5] = Steady-state hydrolysis of p-nitrophenyl acetate by purified AtETHE1; format: biochemical, Arabidopsis thaliana; details: substrate p-nitrophenyl acetate; 25° C., 10 mM MOPS pH 7.2
Procedure: as §1

[6] = Thioesterase activity of AtETHE1 with SLG and other glutathione thioesters; format: biochemical, Arabidopsis thaliana
Procedure: as §1

[7] = recombinant rat carbonic anhydrase III, G. Kim et al. 2000; cited from earlier work

Molecule: c1cnc2c(c1)ccc1cccnc12 [1,10-o-phenanthroline]
- effect on AtETHE1 activity towards p-nitrophenyl acetate (AtETHE1 [1]): inhibited

Molecule: CC1=CC(=O)CC(C)(C)[C@@]1(O)/C=C/C(C)=C\C(=O)O [ABA, abscisic acid]
- fold increase of AtETHE1 expression versus control (AtETHE1 expression): 1.8 fold
- increase in AtETHE1 transcript levels [2]: approximately two fold increases

Molecule: N[C@@H](CCC(=O)Nc1ccc([N+](=O)[O-])cc1)C(=O)O [Glu-pNA, y-L-Glu-p-nitroanalide]
- substrate for AtETHE1 (AtETHE1 [3]): not to be substrates

Molecule: [Cl-].[Na+] [NaCl]
- fold increase of AtETHE1 expression versus control (AtETHE1 expression): 2.1 fold
- increase in AtETHE1 transcript levels [2]: approximately two fold increases

Molecule: CCCC(=O)O [butyric acid]
- sensitivity of AtETHE256-OE plants compared with wild-type plants [4]: same sensitivity

Molecule: C/C=C/C(=O)O [crotonic acid]
- sensitivity of AtETHE256-OE plants compared with wild-type plants [4]: same sensitivity

Molecule: CCC(C(=O)O)C(=O)O [ethylmalonic acid]
- sensitivity of AtETHE256-OE plants compared with wild-type plants [4]: same sensitivity

Molecule: OC[C@@H](O)[C@@H](O)[C@H](O)[C@H](O)CO [mannitol]
- fold increase of AtETHE1 expression versus control (AtETHE1 expression): 2.6 fold
- increase in AtETHE1 transcript levels [2]: approximately 2.5 fold

Molecule: CC(C(=O)O)C(=O)O [methylmalonate]
- toxicity in plants (plants): toxic in plants

Molecule: CCC(=O)O [propionate]
- sensitivity of AtETHE256-OE plants compared with wild-type plants [4]: same sensitivity

Molecule: CC(C)[C@H](N)C(=O)O [valine]
- inhibition at 1500 µM ([4]; AtETHE1256-OE plants, read-out: inhibition of growth): ~40%
- inhibition at 1500 µM ([4]; wild-type plants, read-out: inhibition of root growth): ~80%

Molecule: Ala-ala-ala-p-nitroanilide [Ala-Ala-Ala-pNA]
- substrate for AtETHE1 (AtETHE1 [3]): not to be substrates

B1: AtETHE1: Arabidopsis thaliana ETHE1 polypeptide, recombinant, purified from E. coli; mononuclear Fe(II) β-lactamase fold protein (protein)
chain: MKLLFRQLFENESSTFTYLLADVSHPDKPALLIDPVDKTVDRDLKLIDELGLKLIYAMNTHVHADHVTGTGLLKTKLPGVKSVISKASGSKADLFLEPGDKVSIGDIYLEVRATPGHTAGCVTYVTGEGADQPQPRMAFTGDAVLIRGCGRTDFQEGSSDQLYESVHSQIFTLPKDTLIYPAHDYKGFEVSTVGEEMQHNPRLTKDKETFKTIMSNLNLSYPKMIDVAVPANMVCGLQDVPSQAN
- activity against p-NPA [5]: 2.02±0.46 nmols/min/mg of enzyme
- enzymatic activity towards SLG ([6]; Example 5, over-expressed purified AtETHE1): no enzymatic activity
- hydrolysis of glutathione thioesters ([6]; as-isolated and after incubation with excess iron, SLG and other thioester derivatives): did not hydrolyze any of the glutathione thioesters

B2: rat carbonic anhydrase III: recombinant rat carbonic anhydrase III, literature comparator for esterase activity (protein, UniProt P14141 2-260, looked up)
Carbonic anhydrase 3: AKEWGYASHNGPEHWHELYPIAKGDNQSPIELHTKDIRHDPSLQPWSVSYDPGSAKTILNNGKTCRVVFDDTFDRSMLRGGPLSGPYRLRQFHLHWGSSDDHGSEHTVDGVKYAAELHLVHWNPKYNTFGEALKQPDGIAVVGIFLKIGREKGEFQILLDALDKIKTKGKEAPFNHFDPSCLFPACRDYWTYHGSFTTPPCEECIVWLLLKEPMTVSSDQMAKLRSLFASAENEPPVPLVGNWRPPQPIKGRVVRASFK
- esterase activity with p-nitrophenyl acetate [7]: 25.8 nmols/min/mg
